We go through 1 molecule from paper PMC5218480 (PLoS ONE, 2017).

For this assay, the system named is MV-4-11 cells. The experiment in a line: Gene expression microarray analysis (Affymetrix PrimeView) and GSEA. The class given is cell-based, human. Also on record: RFU PODN (11730768_x_at) / Fold change /veh PODN (11730768_x_at) / RFU LINC00158 (11744669_a_at) / Fold change /veh LINC00158 (11744669_a_at) / RFU DUSP10 (11751237_a_at) / Fold change /veh DUSP10 (11751237_a_at) / RFU ID3 (11757404_x_at) / Fold change /veh ID3 (11757404_x_at) / RFU PLEKHG5 (11737974_s_at) / Fold change /veh PLEKHG5 (11737974_s_at) / RFU LRRC4B (11730491_at) / Fold change /veh LRRC4B (11730491_at) / RFU GIMAP4 (11747438_a_at) / Fold change /veh GIMAP4 (11747438_a_at) / RFU KRT8 (11758183_x_at) / Fold change /veh KRT8 (11758183_x_at) / RFU CNN1 (11734310_a_at) / Fold change /veh CNN1 (11734310_a_at) / RFU VPS37D (11726825_at) / Fold change /veh VPS37D (11726825_at) / RFU C10orf10 (11716522_x_at) / Fold change /veh C10orf10 (11716522_x_at) / RFU KIR2DL2 /// KIR2DL4 /// KIR2DL5A /// KIR2DL5B /// KIR2DS1 /// KIR2DS2 /// KIR2DS3 /// KIR2DS4 /// KIR3DL3 /// KIR3DL3 /// KIR3DS1 (11738374_at) / Fold change /veh KIR2DL2 /// KIR2DL4 /// KIR2DL5A /// KIR2DL5B /// KIR2DS1 /// KIR2DS2 /// KIR2DS3 /// KIR2DS4 /// KIR3DL3 /// KIR3DL3 /// KIR3DS1 (11738374_at) / RFU C1QL1 (11718748_at) / Fold change /veh C1QL1 (11718748_at) / RFU TMPRSS4 (11747572_a_at) / Fold change /veh TMPRSS4 (11747572_a_at) / RFU HAMP (11756126_x_at) / Fold change /veh HAMP (11756126_x_at) / RFU RNFT2 (11725882_a_at) / Fold change /veh RNFT2 (11725882_a_at) / RFU NR4A2 (11747474_a_at) / Fold change /veh NR4A2 (11747474_a_at) / RFU ABCC12 (11746883_a_at) / Fold change /veh ABCC12 (11746883_a_at) / RFU TMEM136 (11760407_x_at) / Fold change /veh TMEM136 (11760407_x_at) / RFU CLDN22 /// WWC2 (11732394_at) / Fold change /veh CLDN22 /// WWC2 (11732394_at) / RFU HLA-DPB1 (11760878_x_at) / Fold change /veh HLA-DPB1 (11760878_x_at) / RFU SPINT1 (11716480_a_at) / Fold change /veh SPINT1 (11716480_a_at) / RFU GAP43 (11754022_s_at) / Fold change /veh GAP43 (11754022_s_at) / RFU A4GNT (11735810_at) / Fold change /veh A4GNT (11735810_at) / RFU PRB3 (11715151_x_at) / Fold change /veh PRB3 (11715151_x_at) / RFU TUBB4B (11761932_at) / Fold change /veh TUBB4B (11761932_at) / RFU CAPN14 (11732068_a_at) / Fold change /veh CAPN14 (11732068_a_at) / RFU TMCC2 (11721928_a_at) / Fold change /veh TMCC2 (11721928_a_at) / RFU IRGQ (11745062_a_at) / Fold change /veh IRGQ (11745062_a_at) / RFU FAM174B (11720279_a_at) / Fold change /veh FAM174B (11720279_a_at) / RFU TMPRSS4 (11748680_a_at) / Fold change /veh TMPRSS4 (11748680_a_at) / RFU FAM212B (11763350_a_at) / Fold change /veh FAM212B (11763350_a_at) / RFU PLEKHG5 (11743358_a_at) / Fold change /veh PLEKHG5 (11743358_a_at) / RFU ZSCAN30 (11745921_a_at) / Fold change /veh ZSCAN30 (11745921_a_at) / RFU CMKLR1 (11741424_a_at) / Fold change /veh CMKLR1 (11741424_a_at) / RFU LOC101060620 /// MAPK8IP1 (11723275_at) / Fold change /veh LOC101060620 /// MAPK8IP1 (11723275_at) / RFU SPTSSB (11747773_x_at) / Fold change /veh SPTSSB (11747773_x_at) / RFU PRSS12 (11739890_at) / Fold change /veh PRSS12 (11739890_at) / RFU BIN1 (11741810_x_at) / Fold change /veh BIN1 (11741810_x_at) / RFU WNT11 (11732464_a_at) / Fold change /veh WNT11 (11732464_a_at) / RFU C10orf10 (11716521_a_at) / Fold change /veh C10orf10 (11716521_a_at) / RFU C5orf56 (11738089_at) / Fold change /veh C5orf56 (11738089_at) / RFU CYB561 (11721691_x_at) / Fold change /veh CYB561 (11721691_x_at) / RFU ANKRD19P (11752326_a_at) / Fold change /veh ANKRD19P (11752326_a_at) / RFU OR2T12 /// OR2T33 /// OR2T8 (11738714_s_at) / Fold change /veh OR2T12 /// OR2T33 /// OR2T8 (11738714_s_at) / RFU VCAN (11748164_a_at) / Fold change /veh VCAN (11748164_a_at) / RFU JSRP1 (11732532_at) / Fold change /veh JSRP1 (11732532_at) / RFU KRTAP10-11 (11738290_x_at) / Fold change /veh KRTAP10-11 (11738290_x_at) / RFU MYO3A (11730013_a_at) / Fold change /veh MYO3A (11730013_a_at) / RFU EBF3 (11725865_a_at) / Fold change /veh EBF3 (11725865_a_at) / RFU CAMK2N1 (11719241_x_at) / Fold change /veh CAMK2N1 (11719241_x_at) / RFU C5orf56 (11738088_a_at) / Fold change /veh C5orf56 (11738088_a_at) / RFU OLFML3 (11715873_a_at) / Fold change /veh OLFML3 (11715873_a_at) / RFU LOC100653217 /// NTM (11731650_a_at) / Fold change /veh LOC100653217 /// NTM (11731650_a_at) / RFU MAPK11 (11762145_a_at) / Fold change /veh MAPK11 (11762145_a_at) / RFU FIZ1 (11724087_x_at) / Fold change /veh FIZ1 (11724087_x_at) / RFU OASL (11726364_x_at) / Fold change /veh OASL (11726364_x_at) / RFU SOX15 (11748057_x_at) / Fold change /veh SOX15 (11748057_x_at) / RFU CD79A (11719716_a_at) / Fold change /veh CD79A (11719716_a_at) / RFU HIST1H1D (11736915_at) / Fold change /veh HIST1H1D (11736915_at) / RFU CASKIN2 (11723855_a_at) / Fold change /veh CASKIN2 (11723855_a_at) / RFU LOC730098 (11760151_x_at) / Fold change /veh LOC730098 (11760151_x_at) / RFU OR4N2 (11742367_at) / Fold change /veh OR4N2 (11742367_at) / RFU PRRT2 (11749266_a_at) / Fold change /veh PRRT2 (11749266_a_at) / RFU SNX32 (11753110_a_at) / Fold change /veh SNX32 (11753110_a_at) / RFU CDHR5 (11726645_a_at) / Fold change /veh CDHR5 (11726645_a_at) / RFU RCAN1 (11760418_a_at) / Fold change /veh RCAN1 (11760418_a_at) / RFU FAM167A (11723789_a_at) / Fold change /veh FAM167A (11723789_a_at) / RFU FAM26E (11764081_at) / Fold change /veh FAM26E (11764081_at) / RFU ISYNA1 (11749810_s_at) / Fold change /veh ISYNA1 (11749810_s_at) / RFU ACY1 (11761880_at) / Fold change /veh ACY1 (11761880_at) / RFU 11764098_at / Fold change /veh 11764098_at / RFU SAMD14 (11745864_x_at) / Fold change /veh SAMD14 (11745864_x_at) / RFU NPB (11741838_a_at) / Fold change /veh NPB (11741838_a_at) / RFU TMPRSS6 (11731388_a_at) / Fold change /veh TMPRSS6 (11731388_a_at) / RFU KRTAP10-2 (11738614_at) / Fold change /veh KRTAP10-2 (11738614_at) / RFU ARHGAP8 /// PRR5-ARHGAP8 (11727945_x_at) / Fold change /veh ARHGAP8 /// PRR5-ARHGAP8 (11727945_x_at) / RFU KRTAP5-7 /// NADSYN1 (11734609_at) / Fold change /veh KRTAP5-7 /// NADSYN1 (11734609_at) / RFU RASL12 (11751679_a_at) / Fold change /veh RASL12 (11751679_a_at) / RFU CDKN2B (11736163_a_at) / Fold change /veh CDKN2B (11736163_a_at) / RFU PRF1 (11729649_at) / Fold change /veh PRF1 (11729649_at) / RFU, ZNF638 /// ZNF638-IT1 / Fold change vs veh, ZNF638 /// ZNF638-IT1 / RFU, PANK3 / Fold change vs veh, PANK3 / RFU, SH3YL1 / Fold change vs veh, SH3YL1 / RFU, ZEB2 / Fold change vs veh, ZEB2 / RFU, NRIP1 / Fold change vs veh, NRIP1 / RFU, PTTG1IP / Fold change vs veh, PTTG1IP / RFU, CAPN2 / Fold change vs veh, CAPN2 / RFU, MED14 / Fold change vs veh, MED14 / RFU, SNORA58 / Fold change vs veh, SNORA58 / RFU, C1orf63 / Fold change vs veh, C1orf63 / RFU, LRRFIP1 / Fold change vs veh, LRRFIP1 / RFU, NDUFAF7 / Fold change vs veh, NDUFAF7 / RFU, SLC12A2 / Fold change vs veh, SLC12A2 / RFU, IBTK / Fold change vs veh, IBTK / RFU, ESF1 / Fold change vs veh, ESF1 / Fold change vs veh, TMEM50B / RFU, TAOK1 / Fold change vs veh, TAOK1 / RFU, ACBD3 / Fold change vs veh, ACBD3 / RFU, TMA16 / Fold change vs veh, TMA16 / RFU, RWDD3 / Fold change vs veh, RWDD3 / RFU, BCAT1 / Fold change vs veh, BCAT1 / RFU, EDEM3 / Fold change vs veh, EDEM3 / RFU, TMEM33 / Fold change vs veh, TMEM33 / RFU, WDR75 / Fold change vs veh, WDR75 / RFU, AHCTF1 / Fold change vs veh, AHCTF1 / RFU, TFRC / Fold change vs veh, TFRC / RFU, ZDHHC17 / Fold change vs veh, ZDHHC17 / RFU, NOM1 / Fold change vs veh, NOM1 / RFU, ARL8B / Fold change vs veh, ARL8B / RFU, ZBTB11 / Fold change vs veh, ZBTB11 / RFU, TAMM41 / Fold change vs veh, TAMM41 / RFU, KIAA1704 /// LOC100996395 / Fold change vs veh, KIAA1704 /// LOC100996395 / RFU, ING1 / Fold change vs veh, ING1 / RFU, TRMT61B / Fold change vs veh, TRMT61B / RFU, FUBP3 / Fold change vs veh, FUBP3 / RFU, TP53 / Fold change vs veh, TP53 / RFU, TNKS2 / Fold change vs veh, TNKS2 / RFU, ZFP14 / Fold change vs veh, ZFP14 / RFU, ACTR2 / Fold change vs veh, ACTR2 / RFU, PPP3R1 / Fold change vs veh, PPP3R1 / RFU, PIK3R1 / Fold change vs veh, PIK3R1 / RFU, HNRNPA1 / Fold change vs veh, HNRNPA1 / RFU, RNF170 / Fold change vs veh, RNF170 / RFU, ZNF28 / Fold change vs veh, ZNF28 / RFU, RNGTT / Fold change vs veh, RNGTT / RFU, OGT / Fold change vs veh, OGT / RFU, BRD1 / Fold change vs veh, BRD1 / RFU, MARS / Fold change vs veh, MARS / RFU, ZNF655 / Fold change vs veh, ZNF655 / RFU, FAHD1 / Fold change vs veh, FAHD1 / RFU, BDP1 / Fold change vs veh, BDP1 / RFU, LRRCC1 / Fold change vs veh, LRRCC1 / RFU, ARID1A / Fold change vs veh, ARID1A / RFU, ZNF146 / Fold change vs veh, ZNF146 / RFU, ZNF330 / Fold change vs veh, ZNF330 / RFU, GPN3 / Fold change vs veh, GPN3 / RFU, C9orf123 / Fold change vs veh, C9orf123 / RFU, N4BP2L2 / Fold change vs veh, N4BP2L2 / RFU, ARFIP1 / Fold change vs veh, ARFIP1 / RFU, FAM179B / Fold change vs veh, FAM179B / RFU, BCL10 / Fold change vs veh, BCL10 / RFU, UHRF1BP1L / Fold change vs veh, UHRF1BP1L / RFU, BET1 / Fold change vs veh, BET1 / RFU, CNOT2 / Fold change vs veh, CNOT2 / RFU, ZNF268 / Fold change vs veh, ZNF268 / Fold change vs veh, ZNF507 / RFU, DGCR2 / Fold change vs veh, DGCR2 / RFU, WDSUB1 / Fold change vs veh, WDSUB1 / Fold change vs veh, HSP90B1 /// MIR3652 / RFU, ADSS / Fold change vs veh, ADSS / RFU, GK / Fold change vs veh, GK / RFU, ZNF148 / Fold change vs veh, ZNF148 / RFU, TAF9 / Fold change vs veh, TAF9 / RFU, SLC1A5 / Fold change vs veh, SLC1A5 / RFU, SLMO2 / Fold change vs veh, SLMO2 / RFU, ABCC4 / Fold change vs veh, ABCC4 / RFU, LOC101060439 /// RAP1B / Fold change vs veh, LOC101060439 /// RAP1B / RFU, RFX7 / Fold change vs veh, RFX7 / RFU, GTPBP10 / Fold change vs veh, GTPBP10 / RFU, CNEP1R1 / Fold change vs veh, CNEP1R1 / RFU, BIVM-ERCC5 /// ERCC5 / Fold change vs veh, BIVM-ERCC5 /// ERCC5 / RFU, ILF3 / Fold change vs veh, ILF3 / RFU 11762660_at / Fold change /veh 11762660_at / RFU VCAN (11757783_s_at) / Fold change /veh VCAN (11757783_s_at) / RFU DDX43 (11728927_at) / Fold change /veh DDX43 (11728927_at) / RFU KRT8 (11758188_x_at) / Fold change /veh KRT8 (11758188_x_at) / RFU NKD1 (11759106_at) / Fold change /veh NKD1 (11759106_at) / RFU SRD5A1 (11742802_a_at) / Fold change /veh SRD5A1 (11742802_a_at) / RFU TPSAB1 /// TPSB2 (11721975_s_at) / Fold change /veh TPSAB1 /// TPSB2 (11721975_s_at) / RFU GSTM3 (11746129_a_at) / Fold change /veh GSTM3 (11746129_a_at) / RFU IL23R (11737362_x_at) / Fold change /veh IL23R (11737362_x_at) / RFU TMEM51 (11727254_a_at) / Fold change /veh TMEM51 (11727254_a_at) / RFU PIWIL2 (11732686_x_at) / Fold change /veh PIWIL2 (11732686_x_at) / RFU ORM1 (11744905_x_at) / Fold change /veh ORM1 (11744905_x_at) / RFU CCDC152 (11743942_at) / Fold change /veh CCDC152 (11743942_at) / RFU ECM1 (11717891_a_at) / Fold change /veh ECM1 (11717891_a_at) / RFU IL23R (11748794_a_at) / Fold change /veh IL23R (11748794_a_at) / RFU TNFAIP8L3 (11732012_x_at) / Fold change /veh TNFAIP8L3 (11732012_x_at) / RFU MBOAT4 (11741988_at) / Fold change /veh MBOAT4 (11741988_at) / RFU 11764193_at / Fold change /veh 11764193_at / RFU TMEM53 (11763286_at) / Fold change /veh TMEM53 (11763286_at) / RFU MAGEB2 (11727129_at) / Fold change /veh MAGEB2 (11727129_at) / RFU TMEM200A (11744735_a_at) / Fold change /veh TMEM200A (11744735_a_at) / RFU CCDC152 (11751479_a_at) / Fold change /veh CCDC152 (11751479_a_at) / RFU FAM211A (11726209_a_at) / Fold change /veh FAM211A (11726209_a_at) / RFU RGS16 (11746705_a_at) / Fold change /veh RGS16 (11746705_a_at) / RFU VCAN (11755009_s_at) / Fold change /veh VCAN (11755009_s_at) / RFU RHOB (11743442_s_at) / Fold change /veh RHOB (11743442_s_at) / RFU RGS16 (11720943_a_at) / Fold change /veh RGS16 (11720943_a_at) / RFU RGS16 (11720944_at) / Fold change /veh RGS16 (11720944_at) / RFU, VPS4B / Fold change vs veh, VPS4B / RFU, CREB1 / Fold change vs veh, CREB1 / RFU, DNAJC13 / Fold change vs veh, DNAJC13 / RFU, GNAQ / Fold change vs veh, GNAQ / RFU, CDK5R1 / Fold change vs veh, CDK5R1 / RFU, ZRANB3 / Fold change vs veh, ZRANB3 / RFU, CUL4A / Fold change vs veh, CUL4A / RFU, CCNY / Fold change vs veh, CCNY / RFU, UFL1 / Fold change vs veh, UFL1 / RFU, COG3 / Fold change vs veh, COG3 / RFU, DIAPH2 / Fold change vs veh, DIAPH2 / RFU, SKA2 / Fold change vs veh, SKA2 / RFU, AFF3 / Fold change vs veh, AFF3 / RFU, LMF1 / Fold change vs veh, LMF1 / RFU, IPO11 / Fold change vs veh, IPO11 / RFU, DFFB / Fold change vs veh, DFFB / RFU, FOXP1 / Fold change vs veh, FOXP1 / RFU, CARD8 / Fold change vs veh, CARD8 / RFU, STRN3 / Fold change vs veh, STRN3 / RFU, ADK / Fold change vs veh, ADK / RFU, RASSF2 / Fold change vs veh, RASSF2 / RFU, WIPF1 / Fold change vs veh, WIPF1 / RFU, LARP1B / Fold change vs veh, LARP1B / RFU, RASA1 / Fold change vs veh, RASA1 / RFU, RB1 / Fold change vs veh, RB1 / RFU, PPFIA1 / Fold change vs veh, PPFIA1 / RFU, MAT2A / Fold change vs veh, MAT2A / RFU, CCT5 / Fold change vs veh, CCT5 / RFU, WDR92 / Fold change vs veh, WDR92 / RFU, CUX1 / Fold change vs veh, CUX1 / RFU, TTC7A / Fold change vs veh, TTC7A / RFU, TMEM135 / Fold change vs veh, TMEM135 / RFU, DEPTOR / Fold change vs veh, DEPTOR / RFU, CPM / Fold change vs veh, CPM / RFU, DNAJB6 / Fold change vs veh, DNAJB6 / RFU, CACNA2D3 / Fold change vs veh, CACNA2D3 / RFU, DTX4 / Fold change vs veh, DTX4 / RFU, TFCP2 / Fold change vs veh, TFCP2 / RFU, GMCL1 /// GMCL1P1 / Fold change vs veh, GMCL1 /// GMCL1P1 / RFU, AEBP2 / Fold change vs veh, AEBP2 / RFU, SNHG1 /// SNORD22 /// SNORD25 /// SNORD26 /// SNORD27 /// SNORD28 /// SNORD29 /// SNORD31 / Fold change vs veh, SNHG1 /// SNORD22 /// SNORD25 /// SNORD26 /// SNORD27 /// SNORD28 /// SNORD29 /// SNORD31 / Fold change (Aza/veh), C12orf56 (ProbeSet 11735607_a_at) / Fold change (ACY-1035/veh), C12orf56 (ProbeSet 11735607_a_at) / Fold change (Aza/veh), FGFR1OP (ProbeSet 11751329_s_at) / Fold change (ACY-1035/veh), FGFR1OP (ProbeSet 11751329_s_at) / Fold change (Aza/veh), VPS36 (ProbeSet 11739960_a_at) / Fold change (ACY-1035/veh), VPS36 (ProbeSet 11739960_a_at) / RFU SYPL1 (11715823_x_at) / Fold change /veh SYPL1 (11715823_x_at) / RFU IGFBP7 (11715501_s_at) / Fold change /veh IGFBP7 (11715501_s_at) / RFU REEP3 (11722064_at) / Fold change /veh REEP3 (11722064_at) / RFU IGLL1 (11728026_x_at) / Fold change /veh IGLL1 (11728026_x_at): dose or concentration left out as unconfirmed. To be noted: ProbeSet 11758170_s_at; LIST D.

Regarding `Nc1ccc(-c2cccs2)cc1NC(=O)c1ccc2c(c1)cc(C1CC1)n2CCN1CCOCC1` [ACY-1035], the “RFU, DIAPH2” value is given as 32.47 RFU.
